The text below walks through data of BindingDB's records for patent US20240189287 (Bionanosim (Bns, 2024).

This assay addresses Cannabinoid receptor 1 (Mus musculus, UniProt P47746). The assay can be described thus: CB1 receptor binding assay. An excerpt: Mouse brain membranes were used as the source material for CB1 receptors. […] Briefly.

Cannabinoid receptor 1, sequence (P47746 whole entry): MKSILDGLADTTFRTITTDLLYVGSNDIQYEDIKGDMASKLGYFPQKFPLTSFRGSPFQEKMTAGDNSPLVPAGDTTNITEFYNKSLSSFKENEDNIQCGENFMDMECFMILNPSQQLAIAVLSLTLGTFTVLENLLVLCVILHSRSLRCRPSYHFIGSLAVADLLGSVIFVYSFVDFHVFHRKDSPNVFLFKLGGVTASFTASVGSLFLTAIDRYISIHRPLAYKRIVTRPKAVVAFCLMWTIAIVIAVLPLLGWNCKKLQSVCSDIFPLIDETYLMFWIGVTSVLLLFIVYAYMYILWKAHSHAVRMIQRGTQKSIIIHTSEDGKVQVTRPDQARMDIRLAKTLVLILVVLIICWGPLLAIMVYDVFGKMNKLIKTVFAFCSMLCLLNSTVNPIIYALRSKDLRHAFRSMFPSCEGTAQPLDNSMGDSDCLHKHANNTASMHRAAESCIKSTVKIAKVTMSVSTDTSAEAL

As to `O=S(=O)(NC1CCCOc2c1nn(-c1ccccc1Cl)c2-c1ccc(Cl)cc1)c1ccc(Cl)cc1` (stereo unspecified) [US20240189287, Compound BNS808], the affinity, expressed as Ki, was 0.6 nM.
